Values quoted from earlier work, collected in publication PMC9301717 (ACS Omega, 2022).

Assays:
IDE [1] = test system: IDE
IDE [2] = test system: IDE; remark: listed apart in the source

Oc1ccc(/C=C/c2cc(O)cc(O)c2)cc1 [resveratrol]
effect on IDE's activity toward Aβ42 (IDE [1]): sustains | effect on the enzyme's ability to degrade insulin (IDE [2]): has no effect
